According to patent publication US20060110376A1, “MDA-7 and free radicals in the treatment of cancer” (priority 2002, published 2006):

Key:
Type in all cases: cell-based, human
[1] = system: pancreatic carcinoma cells; assay: MTT viability assay
Protocol: (§1) MTT Viability Assays. Cell viability was assessed by MTT assays as described (Lebedeva et al., 2000, Cancer Research 60:6052-6060). Briefly, cells were seeded in 96-well tissue culture plates (1.5×10^3 cells per well) and treated with various agents. At the indicated times, medium was removed, and fresh medium containing 0.5 mg/ml MTT was added to each well. The cells were incubated at 37° C. for 4 h and then an equal volume of solubilization solution (0.01N HCl in 10% SDS) was added to each well and mixed thoroughly. The optical density from the plates was read on a BioRad Microplate Reader Model 550 at 595 nm.

[2] = system: prostate carcinoma cell lines (DU-145, PC-3, LNCaP); assay: MTT viability assay; conditions: 48 h
Protocol: (§2) Cells were seeded in 96-well plates, pretreated with NAC (5 mM) or Tiron (1 mM) for 2 h and infected with Ad.mda-7. Forty eight hours later, viability was assessed by MTT assay. […] Cells were seeded in 96-well plates, infected with Ad.mda-7 and treated with As2O3 (10 μM) or NSC656240 (400 nM). Forty eight h later, viability was assessed by MTT assay. Panel C. […] After treatment, cells were stained using DCF-DA and analyzed using flow cytometry. […] After treatment, cells were washed and stained with Annexin V-FITC conjugate. Late apoptotic and necrotic cells were excluded using PI staining. Results are the mean of three independent experiments performed with triplicate samples±S.E.
[…] Cellular viability was assessed by MTT assay 48 h after infection (Panel A). Mitochondrial membrane potential (DiOC6(3) staining, Panel B) and apoptotic changes (Annexin V staining, Panel C) were assessed 18 h (LNCaP cells) and 24 h (DU-145, PC-3 and P69 cells) after infection.
as §1, with “This method” for “Cell viability”, “performed” for “assessed by MTT assays”, “Briefly, cells were seeded in 96-well tissue culture plates (1.5×10^3 cells per well) and treated with various agents.” left out, “time points,” for “times,”

prostate carcinoma cells = assay: ROS production (DCF fluorescence, flow cytometry)
Protocol: as §2

[3] = system: pancreatic carcinoma cells; assay: ROS production (flow cytometry)
Protocol: FIG. 46. Combined treatment by NSC656240 or Ar2O3 and Ad.mda-7 causes overproduction of ROS in pancreatic carcinoma cells.
Assessment of ROS Production. To determine ROS production, cells were stained with 2.5 μM HE or 5 μM DCFH-DA in PBS for 30 min at 37° C. in the dark. Immediately after staining, cells were analyzed by flow cytometry (FACSscan, Becton-Dickinson, Mountain View, Calif.), and data were analyzed using CellQuest software, version 3.1 (Becton Dickinson). For inhibition experiments, NAC (Sigma) was added 2 h prior to infection with Ad.mda-7. In all cases, cells were gated to exclude cell debris.

[4] = system: pancreatic cancer cells stably transformed to express MDA-7; assay: Apoptosis and cell death in cells stably expressing MDA-7
Description: FIG. 49. Induction of apoptosis in pancreatic cancer cell lines (PANC-1) stably expressing MDA-7.
FIG. 50. Induction of apoptosis in pancreatic cancer cell lines (Mia PaCa-2) stably expressing MDA-7.
FIG. 51. Induction of apoptosis in pancreatic cancer cell lines (FM516 or BxPC-3) stably expressing MDA-7.

[5] = system: pancreatic carcinoma cells; assay: Apoptosis (annexin V exposure, hypodiploid A0 cells)
Description: FIG. 39. Combined treatment of pancreatic carcinoma cells by NSC656240 and Ad.mda-7 increases levels of annexin V in pancreatic cancer cells irrespective of K-ras status.
FIG. 40. NAC administration prevents the apoptosis of pancreatic cancer cells induced by treatment of pancreatic carcinoma cells by NSC656240 or Ar2O3 and Ad.mda-7.
FIG. 41. Combined treatment of pancreatic carcinoma cells by NSC656240 or Ar2O3 and Ad.mda-7 causes apoptosis irrespective of K-ras status.
Annexin V Binding Assays. Cells were trypsinized, washed once with complete medium and stained with FITC-labeled Annexin-V (kit from Oncogene Research Products, Boston, Mass.) according to the manufacturer's instructions. Flow cytometry was performed immediately after staining.
Cell Cycle Analysis. Cells were trypsinized, washed 2× with PBS and fixed in 70% ethanol overnight at −20° C. Then cells were washed 2 times with PBS, and aliquots of 1×10^6 cells were resuspended in 1 ml of PBS containing 1 mg/ml of RNase A and 0.5 mg/ml of propidium iodide. After 30 min incubation, cells were analyzed by flow cytometry using a FACScan flow cytometer (Becton Dickinson, San Jose, Calif.).

[6] = system: pancreatic cancer cell lines; assay: Western blotting of K-ras and MDA-7 protein
Description: FIG. 43. MDA-7 expression in pancreatic cancer cell lines in the presence or absence of Ad.mda-7, Ad.K-rasAS, or NSC656243. The presence of MDA-7 in mutant K-ras cell lines requires expression of both mda-7 and the antisense K-ras construct, and is potentiated by NSC656243.
FIG. 45. The MDA-7 expression observed in the PANC-1 or BxPC-3 cell lines following administration of Ad.mda-7 in combination with either NSC656240 or Ar2O3 is abrogated by NAC administration.
Preparation of Cell Extracts and Western Blotting Analysis. Cells were washed 2× with cold PBS and lysed on ice for 30 min in […] of cold RIPA buffer [50 mM Tris-HCl (pH 8.0), 150 mM NaCl, 0.1% SDS, 1% NP40, and 0.5% sodium deoxycholate] with freshly added 0.1 mg/ml phenylmethylsulfonyl fluoride, 1 mM sodium orthovanadate, and 1 mg/ml aprotinin. After cell debris were removed by centrifugation at 14,000 g for 10 min at 4° C., protein concentrations were determined using the Bio-Rad protein assay system (Bio-Rad Laboratories, Richmond, Calif.). Aliquots of cell extracts containing […] of total protein were resolved in 12% SDS-PAGE and transferred to Immobilon-P PVDF membranes (Millipore Corp., Bedford, Mass.). Filters were blocked for 1 h at room temperature in Blotto A [5% nonfat milk powder in TBS-T: 10 mM Tris-HCl (pH 8.0), 150 mM NaCl, 0.05% Tween 20], and then incubated for 1 h at room temperature in Blotto A containing a 1:1000 dilution of rabbit anti MDA-7 polyclonal antibody. After washing in TBS-T buffer (3×5 min, RT), filters were incubated for 1 h at room temperature in Blotto A containing a 1:10,000 dilution of peroxidase conjugated anti-rabbit secondary antibody (Amersham, Arlington Heights, Ill.). After washing in TBS-T, ECL was performed according to the manufacturer's recommendation.

Molecule | effect of N-acetyl-cysteine on death after combinational treatment [1] | effect of antioxidant on cell death promoting activity of Ad.mda-7 ([2]; NAC 5 mM, Tiron 1 mM) | effect of NAC on Ad.mda-7-induced ROS generation (prostate carcinoma cells; non-cytotoxic dose of NAC) | effect of NAC on ROS production [3] | effect of NAC on apoptosis and cell death [4] | effect of NAC on apoptosis after combination treatment [5] | effect of NAC on MDA-7 expression and secretion ([6]; both type of cells) | cell death, combinational treatment with Ad.mda-7 ([1]; Ad.mda-7 100 p.f.u./cell) | effect of ROS-producing agent on cell death of Ad.mda-7-infected cells ([2]; As2O3 10 μM, NSC656240 400 nM) | ROS levels (prostate carcinoma cells; treated with NSC656240 or As2O3) | ROS production, combined treatment with Ad.mda-7 [3] | apoptosis and cell death [4] | apoptosis, combination treatment with Ad.mda-7 ([5]; annexin V exposure and A0 population) | MDA-7 protein expression and secretion, combined treatment with Ad.mda-7 ([6]; wt and mutated K-ras pancreatic cancer cell lines)
CC(=O)N[C@@H](CS)C(=O)O [NAC, N-acetyl-cysteine] | death can be prevented | abrogated | suppressed Ad.mda-7-induced ROS generation | blocked ROS production | blocks these processes | prevents apoptosis | abrogates MDA-7 expression and secretion |  |  |  |  |  |  | 
arsenic trioxide |  |  |  |  |  |  |  | caused death of these cells irrespective of their K-ras status | potentiated cell death | ROS levels increased proportionally | Caused ROS overproduction | caused apoptosis and cell death | caused apoptosis in pancreatic carcinoma cells independently of their K-ras status | leads to MDA-7 protein expression and secretion
